Here are results for one substance from US20110117055A1, “Methods of Treating Hepatitis C Virus with Oxoacetamide Compounds” (priority 2009, published 2011).

Series [1] deals with Jc1-luc virus. Nature of the series: Luciferase compound activity assay, Jc1-luc virus in Huh7.5.1 cells. It counts as cell-based, HCV genotype-2a. Particulars: Jc1-luc; ± standard error of the mean. The method, then: Cell culture. Human hepatoma Huh-7.5.1 cells or Huh7 cells were grown at 37° C. and 5% CO2 in Dulbecco's modification of Eagle's medium supplemented with 2 mM L-glutamine, 1 mM Sodium pyruvate, 1× Non-essential amino acids mix, 100 units/ml penicillin, 100 μg/ml streptomycin, and 10% fetal bovine serum.
Virus plasmids. The chimeric full-length construct pFL-JC1, a GT2a/2a chimera consisting of structural genes from the J6CF isolate and non-structural genes from the JFH1 isolate, has been described previously. See Backes et al., J. Virol. 2010, 84:5775-89; Schaller et al., J. Virol., 2007, 81:4591-603; Koutsoudakis et al., J. Virol. 2006, 80:5308-20; Pietschmann et al., Proc. Natl. Acad. Sci., 2006, 103:7408-13. The firefly luciferase gene has been inserted to pFL-Jc1 to develop a plamid pFL-Jc1-luc for use as a reporter of viral replication. See Amako et al., J. Virol. 2009, 83:9237-46. Specifically, the pFL-JC1-luc construct can be utilized to develop an infectious HCV cell culture system to test novel HCV inhibitors, including entry inhibitors, in vitro using luciferase expression.
Preparation of infectious HCV. Jc1-luc or HCV2a/2aChRluc RNA was in vitro transcribed using T7 RiboMAX™ Express Large Scale RNA Production System (Promega). After RNA clean up (Qiagen RNeasy Mini kit), transfection was performed as previously described.
400 microliters of a Huh-7.5.1 or Huh7 cell suspension (10^7 cells/ml) was placed in a 0.4-cm cuvette with 10 μg of Jc1-luc or HCV2a/2aChRluc RNA and electroporated (Bio-Rad Gene Pulser System) using a single square wave at 260 V and 25 ms pulse length. The cells were plated in 15-cm tissue culture dishes (Corning) and supernatant was harvested and concentrated using a centrifugal filter (Amicon 100K, Millipore).
Luciferase compound activity assay. Cell culture and luciferase compound assays were performed as previously described. See Wyles et al., J. Virol. 2007, 81:3005-8; Wyles et al., Antimicrob Agents Chemother. 2009, 53:2660-2; Grünberger et al., J. Infect. Dis. 2008, 197:42-5; Wyles et al., Antimicrob Agents Chemother, 2008, 52:1862-4. Briefly, Huh7.5.1 cells were seeded into 96-well plates at a density of 10,000 cells per well in 100 μl medium. After incubating overnight for attachment, Jc1-luc virus at an MOI 0.01 was added to wells with or without compounds at the specified concentrations. All conditions were run in triplicate. After 24 hours, medium was aspirated and replaced with 100 μl of complete medium containing an identical concentration of compound(s) followed by additional 48 hour incubation. The luciferase assay (Bright-Glo; Promega) was carried out according to the manufacturer's instructions. Luciferase activity was determined using a microplate luminometer (Veritas microplate luminometer; Turner Biosystems). […]

Series [2] concerns HCV2aCh (E2:G451R) mutant virus. Briefly: E2:G451R mutant virus infectivity, luciferase assay. It counts as cell-based, HCV genotype 2a. Particulars: E2:G451R vs parental. The text has this: Since SR-B1 is also known to be one of the essential cellular receptors required for HCV entry, we were interested to know if Compounds 1 and 5 inhibits HCV entry via SR-B1. HCV E2 protein interaction with SR-B1 is believed to occur via hypervariable region 1 located within the N-terminal region of the E2 glycoprotein. Zhong and colleagues reported that a glycine-to-arginine mutation at position 451 (G451R) in E2 promoted JFH-1 infectivity (J. Viol. 2006, 80:11082). […] We introduced the E2:G451R mutation into the backbone of HCV2aCh (FIG. 13a) to test whether this mutation may alter the inhibitory effect of Compounds 1 and 5 on HCV entry mediated by SR-B1.

Series [3] has as its system Huh7.5.1 cells.
For series [4], the system named is HCV genotype 1b subgenomic replicon. Briefly: HCV replicon assay (HCV1b replicon cells, NS5A ELISA). It counts as cell-based. Particulars: 3 days. How it is done: Alternatively, Hut1b cells (Huh7 cells stably replicating HCV genotype 1b subgenomic replicon) were treated with serial dilutions of the test compound for 72 hours. Replication efficiency was monitored by ELISA assay using anti-HCV NS5A monoclonal antibody (Virogen).
Increasing amounts of compound were inoculated onto HCV1b replicon cells and incubated for 3 days. Following incubation, HCV replication was monitored with NS5A protein expression by ELISA.

On to IFN-α, for which the EC50 in series [1] was found to be 3.01 ± 0.39 IU/ml. Besides, the “sensitivity of E2 mutant virus relative to parental virus, luciferase assay for viral infectivity” value in series [2] is “very identical patterns”. In series [3], this substance returned a CC50 above 100 IU/ml. Further, the “effect on HCV replication (NS5A protein expression by ELISA)” value in series [4] is reported as “dose dependent inhibition”.
